In patent publication US6452014B1, “Telomerase inhibitors and methods of their use” (Geron Corporation, priority 2000, dated 2002):
Where “and” joins values, the source holds several entries; their conditions need not be identical. Equal values may be shown once.

molecular target: T1, partially purified telomerase from a nuclear extract of HEK293 cells (Homo sapiens, UniProt O14746); assay: In vitro telomerase inhibition, membrane hybridization assay (method of U.S. Pat. No. 5,760,062); type: biochemical; conditions: replicate determinations listed in one cell
T1 construct: partially purified telomerase from a nuclear extract of HEK293 cells; endogenous in cells; host or cells: HEK293 cells (nuclear extract, partially purified)
T1 sequence (O14746 whole entry): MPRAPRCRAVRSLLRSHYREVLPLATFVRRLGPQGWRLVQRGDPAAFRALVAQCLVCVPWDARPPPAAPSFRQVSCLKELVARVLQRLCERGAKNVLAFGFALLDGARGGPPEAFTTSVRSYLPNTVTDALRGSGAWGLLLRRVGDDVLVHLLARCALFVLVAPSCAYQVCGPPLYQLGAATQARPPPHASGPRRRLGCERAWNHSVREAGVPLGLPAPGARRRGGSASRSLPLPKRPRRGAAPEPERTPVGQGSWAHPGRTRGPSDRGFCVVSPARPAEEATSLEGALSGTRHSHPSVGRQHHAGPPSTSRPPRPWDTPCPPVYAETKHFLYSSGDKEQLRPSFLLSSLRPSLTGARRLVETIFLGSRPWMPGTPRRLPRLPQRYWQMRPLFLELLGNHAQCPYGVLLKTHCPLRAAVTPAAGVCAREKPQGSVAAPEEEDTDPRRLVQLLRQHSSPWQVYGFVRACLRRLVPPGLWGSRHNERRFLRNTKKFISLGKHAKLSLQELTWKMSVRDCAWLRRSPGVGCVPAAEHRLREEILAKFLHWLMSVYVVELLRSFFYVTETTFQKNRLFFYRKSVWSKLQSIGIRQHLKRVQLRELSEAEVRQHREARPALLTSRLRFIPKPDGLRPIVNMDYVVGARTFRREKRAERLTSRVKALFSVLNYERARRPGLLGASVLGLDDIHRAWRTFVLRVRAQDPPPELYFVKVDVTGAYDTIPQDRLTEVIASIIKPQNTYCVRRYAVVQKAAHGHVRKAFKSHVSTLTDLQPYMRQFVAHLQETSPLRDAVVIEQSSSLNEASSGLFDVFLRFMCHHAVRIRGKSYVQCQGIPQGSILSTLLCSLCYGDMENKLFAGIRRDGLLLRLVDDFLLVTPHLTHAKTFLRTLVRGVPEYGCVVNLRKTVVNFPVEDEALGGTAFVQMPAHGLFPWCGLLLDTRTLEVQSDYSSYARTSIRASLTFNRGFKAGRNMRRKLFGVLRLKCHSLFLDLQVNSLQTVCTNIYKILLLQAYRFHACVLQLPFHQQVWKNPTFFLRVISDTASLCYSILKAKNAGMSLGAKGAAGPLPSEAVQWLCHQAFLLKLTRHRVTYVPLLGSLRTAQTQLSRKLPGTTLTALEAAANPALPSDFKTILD
Procedure: Alternatively, telomerase inhibitory activity of the compounds was measured in accordance with a known method (U.S. Pat. No. 5,760,062). That is, a dimethyl sulfoxide (DMSO) solution of each agent was mixed with partially purified telomerase from a nuclear extract of HEK293 cells and incubated in the presence of an oligodeoxynucleotide to be used as the substrate and deoxynucleotide triphosphate. The obtained reacted product (DNA having a telomere sequence) was adsorbed on a membrane, and hybridization was carried out using a labeled oligonucleotide probe having a sequence complementary to the telomere sequence. The inhibition ratio was calculated based on the ratio of the signal of label on the membrane in the presence of the agent to the signal of label in the absence of the agent (control). Also, concentration of each agent which inhibits 50% of the enzyme activity based on the control was used as IC50.

| IC50 | SMILES |
| --- | --- |
| 1.89 µM and 2.26 µM | O=C1NC(=O)/C(=C/c2cc(Br)c(-c3nc4cc(Cl)c(Cl)cc4[nH]3)s2)S1 [Example 29, 5,6-Dichloro-2-[3-bromo-5-[(2,4-dioxothiazolidin-5-ylidene)methyl]thiophen-2-yl]benzimidazole] |
| 5.19 µM and 2.76 µM | O=C1NC(=O)/C(=C/c2ccc(-c3nc4cc(Cl)c(Cl)cc4[nH]3)o2)S1 [Example 30] |
| 1.96 µM and 1.91 µM | O=C1NC(=O)/C(=C/c2ccc(-c3nc4cc(Cl)c(Cl)cc4[nH]3)s2)S1 [Example 32, 5,6-Dichloro-2-[2-[(2,4-dioxothiazolidin-5-ylidene)methyl]thiophen-5-5-yl]benzimidazole] |
| 3.18 µM and 2.47 µM | Cn1c(/C=C2\SC(=O)NC2=O)ccc1-c1nc2cc(Cl)c(Cl)cc2[nH]1 [Example 33, 2-[2-[(2,4-Dioxothiazolidin-5-ylidene)methyl]-1-methylpyrrol-5-yl]-5,6-dichlorobenzimidazole] |
| 0.44 µM and 0.92 µM and 1.01 µM | O=C1NC(=O)/C(=C/c2ccc(-c3nc4cc(Cl)c(Cl)cc4[nH]3)c3ccccc23)S1 [Example 39, 5,6-Dichloro-2-[4-[(2,4-dioxothiazolidin-5-ylidene)methyl]naphth-1-yl]benzimidazole] |
| 0.29 µM and 0.55 µM and 0.51 µM | O=C1NC(=O)/C(=C/c2ccc3cc(-c4nc5cc(Cl)c(Cl)cc5[nH]4)ccc3c2)S1 [Example 40, 5,6-Dichloro-2-[6-[(2,4-dioxothiazolidin-5-ylidene)methyl]naphth-2-yl]benzimidazole] |
| 0.61 µM | O=C1NC(=O)/C(=C/c2ccc3[nH]c(-c4nc5cc(Cl)c(Cl)cc5[nH]4)cc3c2)S1 [Example 45, 5,6-Dichloro-2-[5-[(2,4-dioxothiazolidin-5-ylidene)methyl]indol-2-yl]benzimidazole] |
| 5.4 µM | O=C1NC(=O)/C(=C/c2cc3cc(-c4nc5cc(Cl)c(Cl)cc5[nH]4)ccc3[nH]2)S1 [Example 46, 5,6-Dichloro-2-[2-[(2,4-dioxothiazolidin-5-ylidene)methyl]indol-5-yl]benzimidazole] |

Further lines, the compound ahead of its results:

| SMILES | IC50 |
| --- | --- |
| O=C1NC(=O)/C(=C/c2ccc(-c3nc4cc(Cl)c(Cl)cc4[nH]3)cc2)S1 [Example 1, 5,6-Dichloro-2-[4-[(2,4-dioxothiazolidin-5-ylidene)methyl]phenyl]benzimidazole] | 1.86 µM and 1.1 µM and 1.22 µM and 0.85 µM and 1.14 µM |
| O=C1NC(=O)/C(=C/c2ccc(-c3nc4ccccc4[nH]3)cc2)S1 [Example 2, 2-[4-[(2,4-Dioxothiazolidin-5-ylidene)methyl]phenyl]benzimidazole] | 1.05 µM and 1.52 µM |
| Cc1cc2nc(-c3ccc(/C=C4\SC(=O)NC4=O)cc3)[nH]c2cc1C [Example 3, 5,6-Dimethyl-2-[4-[(2,4-dioxothiazolidin-5-ylidene)methyl]phenyl]benzimidazole] | 5.44 µM and 6.2 µM |
| O=C1NC(=O)/C(=C/c2ccc(-c3nc4cc([N+](=O)[O-])ccc4[nH]3)cc2)S1 [Example 4, 2-[4-[(2,4-Dioxothiazolidin-5-ylidene)methyl]phenyl]-5-nitrobenzimidazole] | 4.3 µM and 3.69 µM |
| O=C1NC(=O)/C(=C/c2ccc(-c3nc4c(C(F)(F)F)cc(Cl)cc4[nH]3)cc2)S1 [Example 5, 6-Chloro-2-[4-[(2,4-dioxothiazolidin-5-ylidene)methyl]phenyl]-4-(trifluoromethyl)benzimidazole] | 4.98 µM and 2.95 µM |
| O=C1NC(=O)/C(=C/c2ccc(-c3nc4cc(C(=O)c5ccccc5)ccc4[nH]3)cc2)S1 [Example 6, 5-Benzoyl-2-[4-[(2,4-dioxothiazolidin-5-ylidene)methyl]phenyl]benzimidazole] | 3.04 µM and 3.35 µM |
| O=C1NC(=O)/C(=C/c2ccc(-c3nc4ccccc4n3Cc3ccc(Cl)c(Cl)c3)cc2)S1 [Example 14, 1-(3,4-Dichlorobenzyl)-2-[4-[(2,4-dioxothiazolidin-5ylidene)methyl]-phenyl]benzimidazole] | 1.61 µM and 1.92 µM |
| Cc1cc2nc(-c3ccc(/C=C4\SC(=O)NC4=O)cc3)n(Cc3ccc(Cl)c(Cl)c3)c2cc1C [Example 15, 1-(3,4-Dichlorobenzyl)-5,6-dimethyl-2-[4-[(2,4-dioxothiazolidin-5-ylidene)methyl]phenyl]benzimidazole] | 3.01 µM and 2.43 µM |
| CCOC(=O)Cn1c(-c2ccc(/C=C3\SC(=O)NC3=O)cc2)nc2cc(Cl)c(Cl)cc21 [Example 20, Ethyl [5,6-Dichloro-2-[4-[(2,4-dioxothiazolidin-5-ylidene)methyl]phenyl]-benzimidazol-1-yl]acetate] | 2.28 µM and 3.26 µM |
| CN(C)CCn1c(-c2ccc(/C=C3\SC(=O)NC3=O)cc2)nc2cc(Cl)c(Cl)cc21 [Example 21, 5,6-Dichloro-1-(2-dimethyaminoethyl)-2-[4-[(2,4-dioxothiazolidin-5-ylidene)methyl]phenyl]benzimidazole] | 19.2 µM and 15.9 µM |
| O=C1NC(=O)C(Cc2ccc(-c3nc4cc(Cl)c(Cl)cc4[nH]3)cc2)S1 (stereo not shown) [Example 28, 2-[4-[(2,4-Dioxothiazolidin-5-yl)methyl]phenyl]-5,6-dichlorobenzimidazole] | 14.5 µM and 15 µM |
